In data set [1] the test system is Cyperus difformis L. (small-flower flatsedge). In words: Postemergence foliar-applied herbicidal activity in direct seeded rice (Example 16). The note with it: post-emergence, 504 h, rice cropping systems, foliar-applied, 8.75 g ae/ha, 21 DAA, may represent multiple trials, read-out: Visual Injury (%) CYPDI. In kind it is in vivo. The text has this:
(§1) Seeds or nutlets of the desired test plant species were planted in a soil matrix prepared by mixing a loam soil (43 percent silt, 19 percent clay, and 38 percent sand, with a pH of about 8.1 and an organic matter content of about 1.5 percent) and river sand in an 80 to 20 ratio. The soil matrix was contained in plastic pots with a surface area of 139.7 cm^2. When required to ensure good germination and healthy plants, a fungicide treatment and/or other chemical or physical treatment was applied. The plants were grown for 10-17 d in a greenhouse with an approximate 14-h photoperiod which was maintained at about 29° C. during the day and 26° C. during the night. Nutrients and water were added on a regular basis and supplemental lighting was provided with overhead metal halide 1000-Watt lamps as necessary. The plants were employed for testing when they reached the second or third true leaf stage.
(§2) Treatments consisted of esters of compounds 1-4, 6-8, 10, 11, 13-16, 20-31, 35, 38, 41 and 42 and A-E. Compound A is methyl 4-amino-3-chloro-6-(4-chloro-3-ethoxy-2-fluorophenyl)-5-fluoropicolinate; compound B is methyl 4-amino-3-chloro-6-(4-cyclopropylphenyl)-5-fluoropicolinate; compound C is methyl 4-amino-3-chloro-6-(2,4-dichloro-3-methoxyphenyl)picolinate; compound D is methyl 6-amino-2-(4-chloro-2-fluoro-3-methoxyphenyl)-5-vinylpyrimidine-4-carboxylate; and compound E is methyl 4-amino-3-chloro-6-(4-chloro-2-fluoro-3-methoxyphenyl)-5-fluoropicolinate. Weighed amounts of technical grade compounds were placed in 25 mL glass vials and dissolved in a volume of 97:3 v/v acetone-DMSO to obtain 12× stock solutions. […] The concentrated stock solutions were added to the spray solutions so that the final acetone and DMSO concentrations were 16.2% and 0.5%, respectively. Spray solutions were diluted to the appropriate final concentrations with the addition of 10 mL of an aqueous mixture of 1.5% (v/v) Agri-dex crop oil concentrate. Generally, multiple concentrations of spray solutions were formulated and tested utilizing the same stock solution. The final spray solutions contained 1.25% (v/v) Agri-dex crop oil concentrate. Compound requirements are based upon a 12 mL application volume at a rate of 187 L/ha. Spray solutions were applied to the plant material with an overhead Mandel track sprayer equipped with 8002E nozzles calibrated to deliver 187 L/ha over an application area of 0.503 square meters (m^2) at a spray height of 18 inches (43 cm) above average plant canopy height. Control plants were sprayed in the same manner with the solvent blank.
(§3) The treated plants and control plants were placed in a greenhouse as described above and watered by sub-irrigation to prevent wash-off of the test compounds. After 3 weeks, the condition of the test plants, compared with that of the untreated plants, was determined visually and scored on a scale of 0 to 100 percent where 0 corresponds to no injury and 100 corresponds to complete kill.
(§4) By applying the well-accepted probit analysis as described by J. Berkson in Journal of the American Statistical […], 48, 565 (1953) and by D. Finney in “Probit Analysis” Cambridge University Press (1952), the data gathered can be used to calculate GR50 and GR80 values, which are defined as growth reduction factors that correspond to the effective dose of herbicide required to kill or control 50 percent or 80 percent, respectively, of a target plant.

The subject of data set [2] is Scirpus juncoides ROXB. (Japanese bulrush). The description is as above. The note with it: Schoenoplectiella juncoides, post-emergence, 504 h; rice cropping systems, foliar-applied, 8.75 g ae/ha, 21 DAA; may represent multiple trials; read-out: Visual Injury (%) SCPJU. In kind it is in vivo.
Description: as §1, §2, §3, §4

In data set [3] the test system is Echinochloa crus-galli (L.) P.BEAUV. (barnyardgrass). Briefly: In-water applied herbicidal activity in transplanted paddy rice (Example 17). It counts as in vivo. The note with it: Echinochloa crus-galli, 504 h; rice cropping systems, in-water applied (paddy), 17.5 g ae/ha, 21 DAA; may represent multiple trials; read-out: Visual Injury (%) ECHCG. As to the method: (§5) Weed seeds or nutlets of the desired test plant species were planted in puddled soil (mud) prepared by mixing a non-sterilized mineral soil (28 percent silt, 18 percent clay, and 54 percent sand, with a pH of about 7.3 to 7.8 and an organic matter content of about 1.0 percent) and water at a ratio of 100 kilograms (kg) of soil to 19 liters (L) of water. The prepared mud was dispensed in 250 mL aliquots into 480 mL non-perforated plastic pots with a surface area of 91.6 cm^2 leaving a headspace of 3 cm in each pot. Rice seeds were planted in Sun Gro MetroMix 306 planting mixture, which typically has a pH of 6.0 to 6.8 and an organic matter content of about 30 percent, in plastic plug trays. Seedlings at the second or third leaf stage of growth were transplanted into 650 mL of mud contained in 960 mL non-perforated plastic pots with a surface area of 91.6 cm^2 four days prior to herbicide application. The paddy was created by filling the 3 cm headspace of the pots with water. When required to ensure good germination and healthy plants, a fungicide treatment and/or other chemical or physical treatment was applied. The plants were grown for 4-14 d in a greenhouse with an approximate 14-h photoperiod which was maintained at about 29° C. during the day and 26° C. during the night. Nutrients were added as Osmocote (17:6:10, Nitrogen:Phosphorus:Potassium (N:P:K)+minor nutrients) at 2 grams (g) per cup. Water was added on a regular basis to maintain the paddy flood, and supplemental lighting was provided with overhead metal halide 1000-Watt lamps as necessary. The plants were employed for testing when they reached the second or third true leaf stage.
(§6) Treatments consisted of esters of compounds 1-4, 6-33, 35-39, 41 and 42 and A-G. Compound A is methyl 4-amino-3-chloro-6-(4-chloro-3-ethoxy-2-fluorophenyl)-5-fluoropicolinate; compound B is methyl 4-amino-3-chloro-6-(4-cyclopropylphenyl)-5-fluoropicolinate; compound C is methyl 4-amino-3-chloro-6-(2,4-dichloro-3-methoxyphenyl)picolinate; compound D is methyl 6-amino-2-(4-chloro-2-fluoro-3-methoxyphenyl)-5-vinylpyrimidine-4-carboxylate; compound E is methyl 4-amino-3-chloro-6-(4-chloro-2-fluoro-3-methoxyphenyl)-5-fluoropicolinate; compound F is methyl 6-amino-2-(4-chloro-2-fluoro-3-methoxyphenyl)-5-methoxypyrimidine-4-carboxylate; and compound G is methyl 4-amino-3-chloro-6-(4-chloro-2-fluoro-3-methoxyphenyl)picolinate. Weighed amounts of technical grade compounds were placed in individual 120 mL glass vials and were dissolved in 20 mL of acetone to obtain concentrated stock solutions. […] The concentrated stock solutions obtained were diluted with 20 mL of an aqueous mixture containing 2.5% Agri-dex crop oil concentrate (v/v). The final application solutions contained 1.25% (v/v) Agri-dex crop oil concentrate. Generally, multiple concentrations were tested utilizing the same stock solution. Applications were made by injecting an appropriate amount of the application solution into the aqueous layer of the paddy. Control plants were treated in the same manner with the solvent blank.
(§7) The treated plants and control plants were placed in a greenhouse as described above and water was added as needed to maintain a paddy flood. After 3 weeks the condition of the test plants, compared with that of the untreated plants, was determined visually and scored on a scale of 0 to 100 percent where 0 corresponds to no injury and 100 corresponds to complete kill.
as §4

The test system of data set [4] is Scirpus juncoides ROXB. (Japanese bulrush). The data set is described as above. It counts as in vivo. The note with it: Schoenoplectiella juncoides, 504 h; rice cropping systems, in-water applied (paddy), 17.5 g ae/ha, 21 DAA; may represent multiple trials; read-out: Visual Injury (%) SCPJU. The protocol:
as §5, §6, §7, §4

As usually defined, the melting point is the temperature of the solid-liquid transition. The compound `COc1c(Cl)ccc(-c2nc(C(=O)OCc3cccc(F)c3)c(Cl)c(N)c2F)c1F` [Compound 23] displayed a melting point of 160 to 161 °C. The pest or weed control at 8.75 g/ha in data set [1] amounted to 100%. Besides, the pest or weed control at 8.75 g/ha in data set [2] came to 100%. In data set [3], the pest or weed control at 17.5 g/ha amounted to 60%. Besides, the pest or weed control at 17.5 g/ha in data set [4] is 95%.
Compound `COc1c(Cl)ccc(-c2nc(C(=O)OCc3ccc(Cl)cc3)c(Cl)c(N)c2F)c1F` [Compound 2, 4-chlorobenzyl 4-amino-3-chloro-6-(4-chloro-2-fluoro-3-methoxyphenyl)-5-fluoropicolinate] registered a melting point of 143 °C. Besides, the pest or weed control at 8.75 g/ha in data set [1] is 100%. For the same compound, in data set [2], the pest or weed control at 8.75 g/ha worked out at 100%. Also, the pest or weed control at 17.5 g/ha in data set [3] worked out at 97%. Besides, the pest or weed control at 17.5 g/ha in data set [4] amounted to 99%.
`COc1c(Cl)ccc(-c2nc(C(=O)OCc3ccccc3F)c(Cl)c(N)c2F)c1F` [Compound 25] displayed a melting point of 169 °C. For the same compound, in data set [1], the pest or weed control at 8.75 g/ha is 100%. Besides, in data set [2], the pest or weed control at 8.75 g/ha worked out at 100%. Besides, the pest or weed control at 17.5 g/ha in data set [3] was 10%. Moreover, in data set [4], the pest or weed control at 17.5 g/ha turned out to be 90%.
Take `COc1c(Cl)ccc(-c2nc(C(=O)OCc3ccc(SC)cc3)c(Cl)c(N)c2F)c1F` [Compound 31]: the melting point was 145 °C. The pest or weed control at 8.75 g/ha in data set [1] worked out at 100%. In data set [2], the pest or weed control at 8.75 g/ha stood at 100%. Moreover, the pest or weed control at 17.5 g/ha in data set [3] worked out at 50%. In addition, the pest or weed control at 17.5 g/ha in data set [4] stood at 85%.
`COc1c(Cl)ccc(-c2nc(C(=O)OCc3ccccc3C)c(Cl)c(N)c2F)c1F` [Compound 8] showed a melting point of 135 °C. Also, the pest or weed control at 8.75 g/ha in data set [1] came to 99%. Moreover, the pest or weed control at 8.75 g/ha in data set [2] is 99%. Moreover, in data set [3], the pest or weed control at 17.5 g/ha was determined as 100%. In data set [4], the pest or weed control at 17.5 g/ha was 100%.
The compound `COC(=O)c1ccc(COC(=O)c2nc(-c3ccc(Cl)c(OC)c3F)c(F)c(N)c2Cl)cc1` [Compound 16] showed a melting point of 182 °C. Further, the pest or weed control at 8.75 g/ha in data set [1] turned out to be 94%. The pest or weed control at 8.75 g/ha in data set [2] was 85%. Besides, the pest or weed control at 17.5 g/ha in data set [3] was determined as 90%. For the same compound, the pest or weed control at 17.5 g/ha in data set [4] turned out to be 99%.
In the same order, the values of `COc1c(Cl)ccc(-c2nc(C(=O)OCc3ccc(C)cc3)c(Cl)c(N)c2F)c1F` [Compound 3] are 139 °C, 100%, 99%, 78% and 99%.
For `COc1c(Cl)ccc(-c2nc(C(=O)OCc3ccc(F)cc3)c(Cl)c(N)c2F)c1F` [Compound 24], the melting point is 143 to 144 °C. Besides, in data set [1], the pest or weed control at 8.75 g/ha came to 100%. Moreover, the pest or weed control at 8.75 g/ha in data set [2] was 100%. The pest or weed control at 17.5 g/ha in data set [3] came to 70%. For the same compound, the pest or weed control at 17.5 g/ha in data set [4] came to 100%.
Take `COc1c(Cl)ccc(-c2nc(C(=O)OCc3ccc(Cl)cc3C)c(Cl)c(N)c2F)c1F` [Compound 30]: the melting point is 167 to 168 °C. Further, the pest or weed control at 8.75 g/ha in data set [1] worked out at 99%. Further, the pest or weed control at 8.75 g/ha in data set [2] turned out to be 0%. In data set [3], the pest or weed control at 17.5 g/ha turned out to be 50%. Moreover, the pest or weed control at 17.5 g/ha in data set [4] came out at 85%.
Turning to `COc1c(Cl)ccc(-c2nc(C(=O)OCc3ccccc3C(F)(F)F)c(Cl)c(N)c2F)c1F` [Compound 26], the melting point was in the range of 133 to 134 °C. Moreover, in data set [1], the pest or weed control at 8.75 g/ha came to 100%. In data set [2], the pest or weed control at 8.75 g/ha was found to be 100%. In addition, the pest or weed control at 17.5 g/ha in data set [3] stood at 20%. Further, in data set [4], the pest or weed control at 17.5 g/ha was determined as 100%.
Turning to `COc1cccc(COC(=O)c2nc(-c3ccc(Cl)c(OC)c3F)c(F)c(N)c2Cl)c1` [Compound 13], the melting point is 164 to 165 °C. The pest or weed control at 8.75 g/ha in data set [1] is 95%. In data set [2], the pest or weed control at 8.75 g/ha turned out to be 80%. Moreover, the pest or weed control at 17.5 g/ha in data set [3] is 98%. Besides, the pest or weed control at 17.5 g/ha in data set [4] is 98%.
In turn, `COc1c(Cl)ccc(-c2nc(C(=O)OCCc3ccc(Cl)cc3)c(Cl)c(N)c2F)c1F` [Compound 22] displayed a melting point of 107 to 108 °C. For the same compound, the pest or weed control at 8.75 g/ha in data set [1] was determined as 100%. The pest or weed control at 8.75 g/ha in data set [2] was found to be 90%. Moreover, the pest or weed control at 17.5 g/ha in data set [3] was 0%. For the same compound, the pest or weed control at 17.5 g/ha in data set [4] stood at 40%.
`COc1c(Cl)ccc(-c2nc(C(=O)OCc3ccc(C(C)C)cc3)c(Cl)c(N)c2F)c1F` [Compound 27] returned a melting point of 75 to 76 °C. The pest or weed control at 8.75 g/ha in data set [1] came to 100%. In data set [2], the pest or weed control at 8.75 g/ha amounted to 100%. Further, in data set [3], the pest or weed control at 17.5 g/ha was 10%. For the same compound, the pest or weed control at 17.5 g/ha in data set [4] was 80%.

Source of the values: US9169217B2, “Arylalkyl esters of 4-amino-6-(substituted phenyl)-picolinates and 6-amino-2-(substituted phenyl)-pyrimidinecarboxylates and their use as selective herbicides for crops” (Dow AgroSciences LLC, priority 2011, dated 2015).
